Values joined by “and” are separate entries in the source; they are usually repeats but may differ in a detail not shown here. Equal values may be shown once. Read-outs that look alike come from different tables or passages of the source.
Legend:
[1] = test system: ATCC strain 43300 Staphylococcus aureus; assay: MRSA survival in MSM and 6 μg/ml oxacillin or methicillin, 24, 48, 120 hours (Example 4)
Procedure: The growth periods tested were 24 hours, 48 hours and 5 days.
USP<51> Antimicrobial Effectiveness protocol was used as the template experimental paradigm. […] All concentrations were plated out to the 10^−7 dilutions to ascertain cfu/ml.
Material was calculated on a 10 ml volume. Sterile oxacillin or methicillin was added to each experimental condition daily at 300 μl from a 30 mg/10 ml concentration giving it an initial final concentration of 6 μg/ml.
All tubes were inoculated with a dilution of MRSA giving a final level of colony forming units of 2.13×10^6/ml (Log=6.3). The tubes were incubated at 25° C. and mixed periodically. Plating was done at 24 hours, 48 hours and 5 days. Each condition was plated by diluting 1 ml of growth material into 9 ml of MLB diluent broth. This mixture was serial diluted down to 10^−7, and 1 ml placed in a sterile petri dish at each dilution point. 20 mls of TSA was added to each dilution, swirled and allowed to solidify. All dilutions were placed in a 35° C. incubator for 24 hours. Bacterial colonies on each plate were counted and colony counts changed into log format. A positive and negative control was ascertained.

[2] = test system: ATCC strain 43300 Staphylococcus aureus; settings: for survival (cfu/ml): 12 μg/ml oxacillin (re-added every 24 hours) + MSM (% in label), three columns = triplicate platings, inoculum 3.3×10^5/ml; for survival, Average Log: 12 μg/ml oxacillin + MSM (% in label)
Procedure: Additional antibiotic was added every 24 hours. The growth periods tested were 24 (see FIG. 4), 48, 72, 96 and 120 hours.
USP<51> Antimicrobial Effectiveness protocol was used as the template experimental paradigm. […] All concentrations were plated out to the 10^−7 dilutions to ascertain cfu/ml. […] Additional antibiotic was added at the initial concentration every 24 hours.
ATCC strain 43300 Staphylococcus aureus was streaked out for isolations. An isolated colony was chosen, streaked again and incubated. Isolate was chosen and then diluted to a McFarland standard of one. The estimated value was then taken to inoculate tubes containing growth media and 12, 30 or 60 μg/ml oxacillin with approximately 10^5 cfu/ml. These tubes were incubated and plated for counting cfu. A clone having no observed log reduction in cfu was selected for the rest of the experiment.
Material was calculated on a 10 ml volume. Sterile oxacillin was added to each experimental condition to a final concentration of 12, 30 or 60 μg/ml antibiotic.
All tubes were then inoculated with a dilution of the selected ATCC strain 43300 Staphylococcus aureus clone giving a final level of colony forming units of 3.3×10^5/ml (log=5.52). The tubes were incubated at 25° C. and mixed periodically. Antibiotic was re-inoculated every 24 hours at the initial concentration to maintain pressure on the organism. Plating was done at 24, 48, 72, and 120 hours. Each condition was plated by diluting 1 ml of growth material into 9 ml of MLB diluent broth. […] This mixture was serial diluted down to 10^−7 with 1 ml placed in triplicate in a sterile petri dish at each dilution point. 20 mls of TSA was added to each dilution, swirled and allowed to solidify. All dilutions were placed in a 35° C. incubator for 24 to 72 hours. Bacterial colonies on each plate were counted and the average taken then changed into log format. Any cfu/ml observed greater than 3.3×10^5 (log=5.5) were recorded as >3.3×10^5.
The tube was then taken out of the experiment and tested for ATCC strain 43300 Staphylococcus growth. The tube was spun down at 5000 rpm for 10 minutes. The supernatant was then decanted into 90 mls of Mueller-Hinton broth with 6 μg/ml oxacillin. This is for enrichment and the recovery of any MRSA cells that may be present whether healthy or stressed. The pellet had 10 mls Mueller-Hinton broth with 6 μg/ml oxacillin added to it to recover any cells that may be present. Both vessels were incubated at 35° C. for 48 hours followed by plating every 24 hours. Each vessel was plated at 10 dilutions to obtain a 1 cfu detection limit.

[3] = 6 μg/ml methicillin + MSM (initial % in label), 48 hours, listed as 5% MSM
[4] = 6 μg/ml methicillin + MSM (initial % in label), 48 hours, listed as 16% MSM
[5] = 6 μg/ml oxacillin + MSM (initial % in label), 48 hours, listed as 8% MSM
[6] = 6 μg/ml oxacillin + MSM (initial % in label), 48 hours, listed as 16% MSM

CS(C)(=O)=O [MSM, Methylsulfonylmethane]
survival (Log cfu/ml) ([1]; 6 μg/ml methicillin + MSM (initial % in label), 48 Hours, listed as 8% MSM): 3.60 Log cfu/ml | survival (Log cfu/ml) ([1]; 6 μg/ml methicillin + MSM (initial % in label), 48 Hours, listed as 10% MSM): 3.70 Log cfu/ml | survival (Log cfu/ml) ([1]; 6 μg/ml methicillin + MSM (initial % in label), 48 Hours, listed as 12% MSM): 3.70 Log cfu/ml | survival (Log cfu/ml) ([1]; 6 μg/ml methicillin + MSM (initial % in label), 48 Hours, listed as 13% MSM): 3.90 Log cfu/ml | survival (Log cfu/ml) ([1]; 6 μg/ml methicillin + MSM (initial % in label), 48 Hours, listed as 14% MSM): 3.98 Log cfu/ml | survival (Log cfu/ml) ([1]; 6 μg/ml methicillin + MSM (initial % in label), 48 Hours, listed as 15% MSM): 4.00 Log cfu/ml | survival (Log cfu/ml) ([1]; 6 μg/ml methicillin + MSM (initial % in label), 24 hours, 3.5% MSM and antibiotic added daily, inoculum Log=6.3): 4.30 Log cfu/ml | survival (Log cfu/ml) ([1]; 6 μg/ml methicillin + MSM (initial % in label), 24 hours, 3.5% MSM and antibiotic added daily, inoculum Log=6.3, listed as 8% MSM): 4.50 Log cfu/ml | survival (Log cfu/ml) ([1]; 6 μg/ml methicillin + MSM (initial % in label), 24 hours, 3.5% MSM and antibiotic added daily, inoculum Log=6.3, listed as 10% MSM): 4.40 Log cfu/ml | survival (Log cfu/ml) ([1]; 6 μg/ml methicillin + MSM (initial % in label), 24 hours, 3.5% MSM and antibiotic added daily, inoculum Log=6.3, listed as 12% MSM): 4.60 Log cfu/ml | survival (Log cfu/ml) ([1]; 6 μg/ml methicillin + MSM (initial % in label), 24 hours, 3.5% MSM and antibiotic added daily, inoculum Log=6.3, listed as 13% MSM): 4.90 Log cfu/ml | survival (Log cfu/ml) ([1]; 6 μg/ml methicillin + MSM (initial % in label), 24 hours, 3.5% MSM and antibiotic added daily, inoculum Log=6.3, listed as 14% MSM): 4.90 Log cfu/ml | survival (Log cfu/ml) ([1]; 6 μg/ml methicillin + MSM (initial % in label), 24 hours, 3.5% MSM and antibiotic added daily, inoculum Log=6.3, listed as 15% MSM): 5.00 Log cfu/ml | survival (Log cfu/ml) ([1]; 6 μg/ml methicillin + MSM (initial % in label), 24 hours, 3.5% MSM and antibiotic added daily, inoculum Log=6.3, listed as 16% MSM): 5.00 Log cfu/ml | average log reduction in cfu/ml [1, 3]: 2.7 log | survival (Log cfu/ml) [1, 3]: 3.60 Log cfu/ml | average log reduction in cfu/ml [1, 4]: 2.1 log | survival (Log cfu/ml) [1, 4]: 4.17 Log cfu/ml | survival (Log cfu/ml) ([1]; 6 μg/ml methicillin + MSM (initial % in label), 120 hours, listed as 5% MSM): TNTC | survival (Log cfu/ml) ([1]; 6 μg/ml methicillin + MSM (initial % in label), 120 hours, listed as 8% MSM): TNTC | survival (Log cfu/ml) ([1]; 6 μg/ml methicillin + MSM (initial % in label), 120 hours, listed as 10% MSM): TNTC | survival (Log cfu/ml) ([1]; 6 μg/ml methicillin + MSM (initial % in label), 120 hours, listed as 12% MSM): 4.20 Log cfu/ml | survival (Log cfu/ml) ([1]; 6 μg/ml methicillin + MSM (initial % in label), 120 hours, listed as 13% MSM): 2.80 Log cfu/ml | survival (Log cfu/ml) ([1]; 6 μg/ml methicillin + MSM (initial % in label), 120 hours, listed as 14% MSM): 2.90 Log cfu/ml | survival (Log cfu/ml) ([1]; 6 μg/ml methicillin + MSM (initial % in label), 120 hours, listed as 15% MSM): 2.80 Log cfu/ml | survival (Log cfu/ml) ([1]; 6 μg/ml methicillin + MSM (initial % in label), 120 hours, listed as 16% MSM): 2.80 Log cfu/ml | Log reduction in cfu/ml ([1]; 6 μg/ml methicillin + initial 13-16% MSM, 120 hours): ~3.5 log | survival (Log cfu/ml) ([1]; 6 μg/ml oxacillin + MSM (initial % in label), 48 Hours, listed as 5% MSM): 5.20 Log cfu/ml | survival (Log cfu/ml) ([1]; 6 μg/ml oxacillin + MSM (initial % in label), 48 Hours, listed as 10% MSM): 4.20 Log cfu/ml | survival (Log cfu/ml) ([1]; 6 μg/ml oxacillin + MSM (initial % in label), 48 Hours, listed as 12% MSM): 4.30 Log cfu/ml | survival (Log cfu/ml) ([1]; 6 μg/ml oxacillin + MSM (initial % in label), 48 Hours, listed as 13% MSM): 4.20 Log cfu/ml | survival (Log cfu/ml) ([1]; 6 μg/ml oxacillin + MSM (initial % in label), 48 Hours, listed as 14% MSM): 4.40 Log cfu/ml | survival (Log cfu/ml) ([1]; 6 μg/ml oxacillin + MSM (initial % in label), 48 Hours, listed as 15% MSM): 4.40 Log cfu/ml | survival (Log cfu/ml) ([1]; 6 μg/ml oxacillin + MSM (initial % in label), 24 hours, listed as 5% MSM): 4.90 Log cfu/ml | survival (Log cfu/ml) ([1]; 6 μg/ml oxacillin + MSM (initial % in label), 24 hours, listed as 8% MSM): 5.00 Log cfu/ml | survival (Log cfu/ml) ([1]; 6 μg/ml oxacillin + MSM (initial % in label), 24 hours, listed as 10% MSM): 5.00 Log cfu/ml | survival (Log cfu/ml) ([1]; 6 μg/ml oxacillin + MSM (initial % in label), 24 hours, listed as 12% MSM): 5.20 Log cfu/ml | survival (Log cfu/ml) ([1]; 6 μg/ml oxacillin + MSM (initial % in label), 24 hours, listed as 13% MSM): 5.00 Log cfu/ml | survival (Log cfu/ml) ([1]; 6 μg/ml oxacillin + MSM (initial % in label), 24 hours, listed as 14% MSM): 5.20 Log cfu/ml | survival (Log cfu/ml) ([1]; 6 μg/ml oxacillin + MSM (initial % in label), 24 hours, listed as 15% MSM): 5.23 Log cfu/ml | survival (Log cfu/ml) ([1]; 6 μg/ml oxacillin + MSM (initial % in label), 24 hours, listed as 16% MSM): 5.25 Log cfu/ml | average log reduction in cfu/ml [1, 5]: 2.7 log | survival (Log cfu/ml) [1, 5]: 3.60 Log cfu/ml | average log reduction in cfu/ml [1, 6]: 2.1 log | survival (Log cfu/ml) [1, 6]: 4.17 Log cfu/ml | survival (Log cfu/ml) ([1]; 6 μg/ml oxacillin + MSM (initial % in label), 120 hours, listed as 5% MSM): TNTC | survival (Log cfu/ml) ([1]; 6 μg/ml oxacillin + MSM (initial % in label), 120 hours, listed as 8% MSM): TNTC | survival (Log cfu/ml) ([1]; 6 μg/ml oxacillin + MSM (initial % in label), 120 hours, listed as 10% MSM): TNTC | survival (Log cfu/ml) ([1]; 6 μg/ml oxacillin + MSM (initial % in label), 120 hours, listed as 12% MSM): TNTC | survival (Log cfu/ml) ([1]; 6 μg/ml oxacillin + MSM (initial % in label), 120 hours, listed as 13% MSM): TNTC | survival (Log cfu/ml) ([1]; 6 μg/ml oxacillin + MSM (initial % in label), 120 hours, listed as 14% MSM): 3.00 Log cfu/ml | survival (Log cfu/ml) ([1]; 6 μg/ml oxacillin + MSM (initial % in label), 120 hours, listed as 15% MSM): 3.00 Log cfu/ml | survival (Log cfu/ml) ([1]; 6 μg/ml oxacillin + MSM (initial % in label), 120 hours, listed as 16% MSM): 3.00 Log cfu/ml | Log reduction in cfu/ml ([1]; 6 μg/ml oxacillin + initial 14-16% MSM, 120 hours): ~3.3 log | survival (cfu/ml) ([2]; 24 hours, listed as 15% MSM): 1.35 × 10^4 cfu/ml and 1.30 × 10^4 cfu/ml | survival (cfu/ml) ([2]; 24 hours, listed as 16% MSM): 7.6 × 10^3 cfu/ml and 7.4 × 10^3 cfu/ml | survival, Average Log ([2]; 24 hours, listed as 5% MSM): 3.91 Log | survival, Average Log ([2]; 24 hours, listed as 6% MSM): 3.92 Log | survival, Average Log ([2]; 24 hours, listed as 7% MSM): 3.91 Log | survival, Average Log ([2]; 24 hours, listed as 8% MSM): 3.82 Log | survival, Average Log ([2]; 24 hours, listed as 9% MSM): 3.72 Log | survival, Average Log ([2]; 24 hours, listed as 10% MSM): 3.76 Log | survival, Average Log ([2]; 24 hours, listed as 11% MSM): 3.91 Log | survival, Average Log ([2]; 24 hours, listed as 12% MSM): 3.85 Log | survival, Average Log ([2]; 24 hours, listed as 13% MSM): 3.95 Log | survival, Average Log ([2]; 24 hours, listed as 14% MSM): 4.00 Log | survival, Average Log ([2]; 24 hours, listed as 15% MSM): 4.11 Log | survival, Average Log ([2]; 24 hours, listed as 16% MSM): 3.88 Log | survival, Average Log ([2]; 48 hours, listed as 5% MSM): 3.6 Log | survival, Average Log ([2]; 48 hours, listed as 6% MSM): 3.2 Log | survival, Average Log ([2]; 48 hours, listed as 7% MSM): 3.9 Log | survival, Average Log ([2]; 48 hours, listed as 8% MSM): 3.7 Log | survival, Average Log ([2]; 48 hours, listed as 9% MSM): 3.4 Log | survival, Average Log ([2]; 48 hours, listed as 10% MSM): 2.7 Log | survival, Average Log ([2]; 48 hours, listed as 11% MSM): 2.8 Log | survival, Average Log ([2]; 48 hours, listed as 12% MSM): 2.8 Log | survival, Average Log ([2]; 48 hours, listed as 13% MSM): 2.8 Log | survival, Average Log ([2]; 48 hours, listed as 14% MSM): 1.0 Log | survival, Average Log ([2]; 48 hours, listed as 15% MSM): 3.7 Log | survival, Average Log ([2]; 48 hours, listed as 16% MSM): 3.7 Log | survival, Average Log ([2]; 72 hours, listed as 5% MSM): 5.5 Log | survival, Average Log ([2]; 72 hours, listed as 6% MSM): 5.5 Log | survival, Average Log ([2]; 72 hours, listed as 7% MSM): 5.5 Log
